Experimental data: patent publication US6737383B1, “Herbicidal oxadiazolidines” (priority 1999, dated 2004)

Tests used:
bedstraw = assay: Test B pre/postemergence bedstraw; type: in vivo, Galium aparine; conditions: Preemergence
Outline: (§1)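 Test chemicals in a non-phytotoxic solvent mixture with surfactant were sprayed preemergence onto planted seeds and postemergence onto plants 2 to 18 cm tall (1- to 4-leaf stage). After twelve to sixteen days in a greenhouse, injury was visually rated against untreated controls from 0 (no effect) to 10 (complete control).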

blackgrass = assay: Test B pre/postemergence blackgrass; type: in vivo, Alopecurus myosuroides; conditions: Preemergence
Outline: as §1

surinam grass = assay: Test B pre/postemergence surinam grass; type: in vivo, Brachiaria decumbens; conditions: Preemergence
Outline: as §1

cocklebur = assay: Test B pre/postemergence cocklebur; type: in vivo, Xanthium strumarium; conditions: Preemergence
Outline: as §1

corn = assay: Test B pre/postemergence corn; type: in vivo, Zea mays; conditions: Preemergence
Outline: as §1

crabgrass = assay: Test B pre/postemergence crabgrass; type: in vivo, Digitaria sanguinalis; conditions: Preemergence
Outline: as §1

giant foxtail = assay: Test B pre/postemergence giant foxtail; type: in vivo, Setaria faberii; conditions: Preemergence
Outline: as §1

morningglory = assay: Test B pre/postemergence morningglory; type: in vivo, Ipomoea hederacea; conditions: Preemergence
Outline: as §1

pigweed = assay: Test B pre/postemergence pigweed; type: in vivo, Amaranthus retroflexus; conditions: Preemergence
Outline: as §1

rape = assay: Test B pre/postemergence rape; type: in vivo, Brassica napus; conditions: Preemergence
Outline: as §1

soybean = assay: Test B pre/postemergence soybean; type: in vivo, Glycine max; conditions: Preemergence
Outline: as §1

sugar beet = assay: Test B pre/postemergence sugar beet; type: in vivo, Beta vulgaris; conditions: Preemergence
Outline: as §1

velvetleaf = assay: Test B pre/postemergence velvetleaf; type: in vivo, Abutilon theophrasti; conditions: Preemergence
Outline: as §1

wheat = assay: Test B pre/postemergence wheat; type: in vivo, Triticum aestivum; conditions: Preemergence
Outline: as §1

wild oat = assay: Test B pre/postemergence wild oat; type: in vivo, Avena fatua; conditions: Preemergence
Outline: as §1

purple nutsedge = assay: Test B pre/postemergence purple nutsedge; type: in vivo, Cyperus rotundus; conditions: Preemergence
Outline: as §1

smallflower flatsedge = assay: Test B flood test smallflower flatsedge; type: in vivo, Cyperus difformis; conditions: for Plant response rating, S. Flatsedge (0 to 10 scale, 0 is no effect, 10 is complete control): Rate 62 g/ha
Outline: (§2)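 Each value is a visual injury score relative to controls, with 10 meaning complete control and 0 no effect. Evaluation took place twelve to sixteen days after the 2-leaf-stage plants were treated and kept in the greenhouse.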

duck salad = assay: Test B flood test duck salad; type: in vivo, Heteranthera limosa; conditions: for Plant response rating, Ducksalad (0 to 10 scale, 0 is no effect, 10 is complete control): Rate 62 g/ha
Outline: as §2

bamyardgrass = assay: Test B flood test barnyardgrass; type: in vivo, Echinochloa crus-galli; conditions: for Plant response rating, Barnyardgrass (0 to 10 scale, 0 is no effect, 10 is complete control): Rate 62 g/ha
Procedure: (§3) At the same time, these crop and weed species were also treated with postemergence applications of test chemicals formulated in the same manner. Plants ranged in height from 2 to 18 cm (1- to 4-leaf stage) for postemergence treatments. Plant species in the flood test consisted of rice (Oryza sativa), smallflower flatsedge (Cyperus difformis), duck salad (Heteranthera limosa) and bamyardgrass (Echinochloa crus-galli) grown to the 2-leaf stage for testing. Treated plants and controls were maintained in a greenhouse for twelve to sixteen days, after which all species were compared to controls and visually evaluated. Plant response ratings, summarized in Table B, are based on a scale of 0 to 10 where 0 is no effect and 10 is complete control. A dash (−) response means no test result.

rice = assay: Test B flood test rice; type: in vivo, Oryza sativa; conditions: Pre-emergence
Procedure: as §3

[1] = Rate 62 g/ha, scale of 0 to 10 where 0 is no effect and 10 is complete control
[2] = Rate 125 g/ha, scale of 0 to 10 where 0 is no effect and 10 is complete control
[3] = Rate 250 g/ha, scale 0 to 10 (0 no effect, 10 complete control)
[4] = Rate 500 g/ha, scale of 0 to 10 where 0 is no effect and 10 is complete control
[5] = flood test species, Pre-emergence, visual evaluation after twelve to sixteen days
[6] = Rate 125 g/ha, under heading Pre-emergence, flood test species, visual evaluation after twelve to sixteen days
[7] = Rate 250 g/ha, Pre-emergence (flood test species), scale 0 to 10, 0 is no effect, 10 is complete control
[8] = Rate 500 g/ha, Pre-emergence section of Table B, 0 to 10 scale (0 no effect, 10 complete control)
[9] = Rate 125 g/ha, Pre-emergence, flood test species, scale 0 to 10 where 0 is no effect and 10 is complete control
[10] = Rate 250 g/ha, Pre-emergence, flood-test species, scale 0 to 10, 0 is no effect, 10 is complete control
[11] = Rate 500 g/ha, Pre-emergence, flood test species, scale 0 to 10 (0 no effect, 10 complete control)

CCCCCCn1c(=O)on(C(=O)N(c2ccc(F)cc2F)C(C)C)c1=O [Compound 637]
Bedstraw plant response rating (bedstraw; [1]): 0
Bedstraw plant response rating (bedstraw; [2]): 0
Plant response rating, Bedstraw (bedstraw; [3]): 2
Plant response rating, Bedstraw (bedstraw; [4]): 4
Blackgrass plant response rating (blackgrass; [1]): 2
Blackgrass plant response rating (blackgrass; [2]): 3
Plant response rating, Blackgrass (blackgrass; [3]): 9
Plant response rating, Blackgrass (blackgrass; [4]): 9
B. signalgrass plant response rating (surinam grass; [1]): 0
B. signalgrass plant response rating (surinam grass; [2]): 3
Plant response rating, B. signalgrass (surinam grass; [3]): 8
Plant response rating, B. signalgrass (surinam grass; [4]): 8
Cocklebur plant response rating (cocklebur; [1]): 0
Cocklebur plant response rating (cocklebur; [2]): 0
Plant response rating, Cocklebur (cocklebur; [3]): 0
Plant response rating, Cocklebur (cocklebur; [4]): 0
Corn plant response rating (corn; [1]): 0
Corn plant response rating (corn; [2]): 0
Plant response rating, Corn (corn; [3]): 0
Plant response rating, Corn (corn; [4]): 0
Crabgrass plant response rating (crabgrass; [1]): 9
Crabgrass plant response rating (crabgrass; [2]): 9
Plant response rating, Crabgrass (crabgrass; [3]): 10
Plant response rating, Crabgrass (crabgrass; [4]): 10
Giant foxtail plant response rating (giant foxtail; [1]): 9
Giant foxtail plant response rating (giant foxtail; [2]): 10
Plant response rating, Giant foxtail (giant foxtail; [3]): 10
Plant response rating, Giant foxtail (giant foxtail; [4]): 10
Morningglory plant response rating (morningglory; [1]): 0
Morningglory plant response rating (morningglory; [2]): 0
Plant response rating, Morningglory (morningglory; [3]): 0
Plant response rating, Morningglory (morningglory; [4]): 0
Redroot pigweed plant response rating (pigweed; [1]): 4
Redroot pigweed plant response rating (pigweed; [2]): 9
Plant response rating, Redroot pigweed (pigweed; [3]): 7
Plant response rating, Redroot pigweed (pigweed; [4]): 10
Rape plant response rating (rape; [1]): 0
Rape plant response rating (rape; [2]): 0
Plant response rating, Rape (rape; [3]): 2
Plant response rating, Rape (rape; [4]): 3
Soybean plant response rating (soybean; [1]): 0
Soybean plant response rating (soybean; [2]): 0
Plant response rating, Soybean (soybean; [3]): 0
Plant response rating, Soybean (soybean; [4]): 0
Sugarbeets plant response rating (sugar beet; [1]): 0
Sugarbeets plant response rating (sugar beet; [2]): 0
Plant response rating, Sugarbeets (sugar beet; [3]): 3
Plant response rating, Sugarbeets (sugar beet; [4]): 5
Velvetleaf plant response rating (velvetleaf; [1]): 0
Velvetleaf plant response rating (velvetleaf; [2]): 0
Plant response rating, Velvetleaf (velvetleaf; [3]): 0
Plant response rating, Velvetleaf (velvetleaf; [4]): 2
Wheat plant response rating (wheat; [1]): 0
Wheat plant response rating (wheat; [2]): 0
Plant response rating, Wheat (wheat; [3]): 0
Plant response rating, Wheat (wheat; [4]): 0
Wild oats plant response rating (wild oat; [1]): 0
Wild oats plant response rating (wild oat; [2]): 0
Plant response rating, Wild oats (wild oat; [3]): 0
Plant response rating, Wild oats (wild oat; [4]): 3
Nutsedge plant response rating (purple nutsedge; [1]): 0
Nutsedge plant response rating (purple nutsedge; [2]): 0
Plant response rating, Nutsedge (purple nutsedge; [3]): 0
Plant response rating, Nutsedge (purple nutsedge; [4]): 0
Plant response rating, S. Flatsedge (0 to 10 scale, 0 is no effect, 10 is complete control) (smallflower flatsedge; [5]): 0
S. Flatsedge plant response rating (0 to 10 scale, 0 is no effect, 10 is complete control) (smallflower flatsedge; [6]): 0
S. Flatsedge plant response rating (smallflower flatsedge; [7]): 0
S. Flatsedge plant response rating (smallflower flatsedge; [8]): 0
Plant response rating, Ducksalad (0 to 10 scale, 0 is no effect, 10 is complete control) (duck salad; [5]): 0
Ducksalad plant response rating (0 to 10 scale, 0 is no effect, 10 is complete control) (duck salad; [6]): 0
Ducksalad plant response rating (duck salad; [7]): 0
Ducksalad plant response rating (duck salad; [8]): 0
Plant response rating, Barnyardgrass (0 to 10 scale, 0 is no effect, 10 is complete control) (bamyardgrass; [5]): 0
Barnyardgrass plant response rating (0 to 10 scale, 0 is no effect, 10 is complete control) (bamyardgrass; [6]): 0
Barnyardgrass plant response rating (bamyardgrass; [7]): 0
Barnyardgrass plant response rating (bamyardgrass; [8]): 0

Cc1cc(C)n(Cn2c(=O)on(C(=O)N(c3ccccc3)C(C)C)c2=O)n1 [Compound 346]
Plant response rating, Rice (0 to 10 scale, 0 is no effect, 10 is complete control) (rice; Rate 62 g/ha, flood test species, visual evaluation after twelve to sixteen days): 0
Rice plant response rating (rice; Rate 125 g/ha, flood test species, scale 0 to 10 where 0 is no effect and 10 is complete control): 0
Rice plant response rating (rice; Rate 250 g/ha, flood-test species, scale 0 to 10, 0 is no effect, 10 is complete control): 0
Rice plant response rating (rice; Rate 500 g/ha, flood test species, scale 0 to 10 (0 no effect, 10 complete control)): 0
Plant response rating, S. Flatsedge (0 to 10 scale, 0 is no effect, 10 is complete control) (smallflower flatsedge; [5]): 0
S. Flatsedge plant response rating (smallflower flatsedge; [9]): 0
S. Flatsedge plant response rating (smallflower flatsedge; [10]): 0
S. Flatsedge plant response rating (smallflower flatsedge; [11]): 0
Plant response rating, Ducksalad (0 to 10 scale, 0 is no effect, 10 is complete control) (duck salad; [5]): 0
Ducksalad plant response rating (duck salad; [9]): 0
Ducksalad plant response rating (duck salad; [10]): 0
Ducksalad plant response rating (duck salad; [11]): 0
Plant response rating, Barnyardgrass (0 to 10 scale, 0 is no effect, 10 is complete control) (bamyardgrass; [5]): 0
Barnyardgrass plant response rating (bamyardgrass; [9]): 0
Barnyardgrass plant response rating (bamyardgrass; [10]): 0
Barnyardgrass plant response rating (bamyardgrass; [11]): 0
